Source: patent US20020103105A1, “Use of selective dopamine D4 receptor agonists for treating sexual dysfunction” (priority 2000, published 2002)
Several values for one entry are separate records, joined by “and”; a condition that tells them apart may be missing. Equal values may be shown once. Read-outs that look alike come from different tables or passages of the source.

Legend:
dopamine D2 receptor = target: T1, dopamine D2 receptor (Homo sapiens, UniProt P14416); assay: Dopamine D2 binding assay ([3H]-spiperone, membranes of transfected A9L cells, run by Cerep); conditions: recombinant human D2, [3H]-spiperone 0.3 nM
T1 construct: host or cells: A9L cells (membranes)
Procedure: (§1) The dopamine D2 and D4 binding assays, used to determine binding affinities (Ki) illustrated in Table 1, were conducted according to standard procedures known to those in the art and are summarized herein.
(§2) Briefly, receptor binding assays at the dopamine D2 and D4 receptors were carried out in membranes from cell lines expressing the recombinant human subtypes. […] Specific binding was defined as the difference between total binding and nonspecific binding. Ki values were determined using the Cheng-Prusoff equation and are illustrated in Table 1.

[1] = tested on: penile erection in Wistar rats; assay: Rat penile erection model; assay type: in vivo; conditions: subcutaneous; for Incidence (%) of penile erections: 60 minutes observation; for facilitation of penile erections in rats (in words, with effective dose range): versus vehicle
Procedure: Wistar rats were used as a primary animal model to study penile erection in vivo. All experiments were carried out between 9:00 AM and 3:00 PM in a diffusely illuminated testing room with a red light. The rats were weighed and allowed to adapt to the testing room for 60 minutes before the beginning of experiments. Rats were placed in individual transparent cages (20×30×30 cm) after subcutaneous drug injection. The number of penile erections was recorded by direct observation for a period of 60 minutes after drug dosing.

[2] = tested on: emesis in male Fitch ferrets; assay: Emesis model in ferrets; assay type: in vivo; conditions: ferret, subcutaneous; for Incidence (%) of emesis: 90 minutes observation; for induction of emesis (in words): all doses tested
Procedure: Male Fitch ferrets (body weights 1.0-1.5 kg) were fasted overnight before experimentation. Animals were placed individually in observation cages following subcutaneous administration of drug and observed for drug-induced nausea and emesis for a period of 90 minutes following drug injection. Nausea was characterized by behaviors such as licking, gagging, backing, head burying, and intense abdominal grooming. Emesis was usually preceded by these behaviors and was characterized by rhythmic abdominal contractions which were associated with vomiting or retching movement. The number of ferrets induced to emesis was recorded and expressed as incidence (%) in Tables 5-7.

dopamine D4 receptor [3] = target: T2, dopamine D4 receptor (Homo sapiens, UniProt P21917); conditions: cited literature; cited from earlier work
T2 sequence (P21917 1-419): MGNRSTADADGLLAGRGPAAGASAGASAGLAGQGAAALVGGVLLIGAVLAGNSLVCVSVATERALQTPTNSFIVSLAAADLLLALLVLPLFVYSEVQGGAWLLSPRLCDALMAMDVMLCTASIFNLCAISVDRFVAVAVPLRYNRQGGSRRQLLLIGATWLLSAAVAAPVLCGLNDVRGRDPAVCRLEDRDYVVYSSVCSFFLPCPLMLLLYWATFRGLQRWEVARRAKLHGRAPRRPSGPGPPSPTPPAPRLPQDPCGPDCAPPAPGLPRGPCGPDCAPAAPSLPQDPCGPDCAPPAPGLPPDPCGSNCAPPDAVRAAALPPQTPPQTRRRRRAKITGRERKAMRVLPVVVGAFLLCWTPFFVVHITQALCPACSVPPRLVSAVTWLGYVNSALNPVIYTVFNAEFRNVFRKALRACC

dopamine D4 receptor [4] = target: T2, dopamine D4 receptor; assay: Dopamine D4 binding assay ([3H]-spiperone, membranes of transfected CHO cells, run by Cerep); parameters: host or cells: CHO cells (membranes); conditions: recombinant human D4, [3H]-spiperone 0.5 nM
Procedure: as §1, §2

human D4 receptor [5] = target: T3, human D4 receptor (Homo sapiens, UniProt P21917); parameters: expressed in transfected cells; conditions: CHO cells, read-out: EC50 inhibition of forskolin-stimulated cAMP accumulation; cited from earlier work
T3 sequence (P21917 1-419): T2 sequence (P21917 1-419)

human D4 receptor [6] = target: T3, human D4 receptor; assay: FLIPR calcium assay in HEK293 cells expressing human D4 receptor co-transfected with Gqo5 chimera; assay type: cell-based; parameters: expressed in transfected cells; host or cells: HEK293 cells, stably transfected, with Gqo5 chimera
Procedure: The FLIPR assay is a functional assay that can be conducted in HEK293 cells expressing the human D4 receptor, co-transfected with the Gqo5 protein chimera. Expression of the G-protein chimera allows for the mobilization of intracellular calcium after activation of the D4 receptor. Cells are prepared by plating the stably transfected D4-HEK293 cells into each well of 96 well plates. Cells are cultured until they reach confluence (approximately 48 hours). Media is removed from the plate and media containing the fluorescent calcium detecting dye Fluo-4 is added. Cells are incubated at room temperature for one hour. Cells are then washed three times with phosphate buffered saline and 150 μl PBS is added. Compounds to be tested are diluted in a second 96-well plate. The plate containing the cells is placed in fluorescent plate reader (FLIPR) and the reaction is begun by adding 50 μl of compound solution to all the wells simultaneously. Fluorescent signal is measured for 60 seconds sampling at 1 second intervals. The signal derived from 10 μM dopamine is used as 100% and a compound dose-response curve is normalized to determine the percent efficacy relative to dopamine. Dose response curves are analyzed to determine EC50 (nM).

T1 sequence (P14416 whole entry): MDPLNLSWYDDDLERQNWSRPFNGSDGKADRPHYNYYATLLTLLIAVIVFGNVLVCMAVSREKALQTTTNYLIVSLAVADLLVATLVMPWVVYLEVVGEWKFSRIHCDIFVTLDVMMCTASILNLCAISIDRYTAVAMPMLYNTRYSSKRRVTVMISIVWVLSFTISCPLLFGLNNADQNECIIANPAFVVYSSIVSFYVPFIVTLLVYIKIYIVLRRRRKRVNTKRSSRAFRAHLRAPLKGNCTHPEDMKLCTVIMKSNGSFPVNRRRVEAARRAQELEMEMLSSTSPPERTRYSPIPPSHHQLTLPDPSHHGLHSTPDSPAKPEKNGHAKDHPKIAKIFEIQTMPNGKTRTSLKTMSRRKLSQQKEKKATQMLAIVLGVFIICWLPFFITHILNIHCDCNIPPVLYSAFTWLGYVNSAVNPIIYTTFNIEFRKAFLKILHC

| SMILES | Ki (dopamine D2 receptor) [nM] | Incidence (%) of penile erections ([1]; 0.03 μmol/kg) [%] | Incidence (%) of penile erections ([1]; 0.1 μmol/kg) | Incidence (%) of penile erections ([1]; 0.3 μmol/kg) [%] | Incidence (%) of penile erections ([1]; 1.0 μmol/kg) [%] | facilitation of penile erections in rats (in words, with effective dose range) [1] | Incidence (%) of emesis ([2]; 0.1 μmol/kg) [%] | Incidence (%) of emesis ([2]; 0.3 μmol/kg) | Incidence (%) of emesis ([2]; 1.0 μmol/kg) [%] | Incidence (%) of emesis ([2]; 3.0 μmol/kg) [%] | induction of emesis (in words) [2] | also measured |
| --- | --- | --- | --- | --- | --- | --- | --- | --- | --- | --- | --- | --- |
| Cc1cccc(C(=O)NCN2CCN(c3ccccc3C#N)CC2)c1 [N-{[4-(2-cyanophenyl)-1-piperazinyl]methyl}-3-methylbenzamide] | > 1000 | 42 | 71% | 79 | 68 | significant facilitation of penile erections in rats for doses 0.1 μmol/kg to 1.0 μmol/kg | 0 | 0% | 0 | 0 | did not induce emesis at any dose |  |
| Fc1ccc2[nH]c(CN3CCN(c4ccccn4)CC3)cc2c1 [5-fluoro-2-{[4-(2-pyridinyl)-1-piperazinyl]methyl}-1H-indole] | > 1000 |  |  | 60 | 90 | significant facilitation of penile erections in rats for doses 1.0 μmol/kg and 3.0 μmol/kg | 0 | 0% | 0 | 0 | did not induce emesis at any dose | Incidence (%) of penile erections ([1]; 3.0 μmol/kg): 90%; Ki (dopamine D4 receptor [3]): 6 nM; selectivity for dopamine D4 receptor compared to D2 receptor (literature) (dopamine D4 receptor [3]): > 100 fold; Ki (dopamine D4 receptor [4]): 2.6 nM; EC50 (human D4 receptor [5]): 5.8 nM; EC50 (human D4 receptor [6]; D4-HEK293 cells, Gqo5): 32 nM; Emax (human D4 receptor [6]; HEK293, relative to 10 μM dopamine = 100%, read-out: Maximum Response FLIPR): 46%; agonism at D4 receptor in FLIPR assay (in words) (human D4 receptor [6]; Table A data): agonists |
| CN1CCc2cccc3c2C1Cc1ccc(O)c(O)c1-3 (stereo not shown) [Apomorphine, 5,6,6a,7-tetrahydro-6-methyl-4H-dibenzo[de,g]quinoline-10,11-diol] |  | 69 | 86% and 90% and 92% | 66 | 25 | significant facilitation of penile erections in rats for doses 0.01 μmol/kg to 0.3 μmol/kg | 32 | 83% and 82% | 48 | 32 | induced emesis at all doses | Incidence (%) of penile erections ([1]; 0.003 μmol/kg): 28%; Incidence (%) of penile erections ([1]; 0.01 μmol/kg): 56%; Incidence (%) of penile erections ([1]; 0.1 μmol/kg, listed as apomorphine): 86% and 90%; Incidence (%) of emesis ([2]; 0.3 μmol/kg, listed as apomorphine): 83%; Incidence (%) of emesis ([2]; 10.0 μmol/kg): 32% |
